Read-outs that look alike come from different tables or passages of the source.
How the values were obtained:
human DHRS9 = molecular target: T1, human DHRS9 (Homo sapiens, UniProt Q9BPW9); assay: Cellular model of oxidation of 3α-diol by DHRS9: inhibition of 3α-diol conversion to DHT, followed via AR transactivation (luciferase reporter) in DHRS9-transfected PALM cells; type: cell-based; conditions: read-out: inhibition of 3α-diol conversion
T1 construct: expressed in transfected cells; host or cells: PALM cells (PC-3 stably co-transfected with human androgen receptor and pMMTV-neo-Luc)
Description: (§1) The cDNA coding for human DHRS9 was sub-cloned into a pcDNA3.1/zeo expression vector. This was then transfected into a cell line denoted PALM, standing for PC-3 Androgen receptor Luciferase MMTV. This cell line originates from PC-3 cells which have been stably co-transfected by the expression vector coding for the human androgen receptor (pSG5-puro-h androgen receptor (AR)) and by the reporter gene vector coding for luciferase (pMMTV-neo-Luc), the promoter for which has AR response elements.
(§2) The activity of conversion of 3α-diol to DHT by DHRS9 can thus be followed via AR transactivation.

[1] = test system: human androgen receptor (AR); assay: Dose-response of the 3α-diol substrate for AR transactivation in PALM cells (PC-3 Androgen receptor Luciferase MMTV); type: cell-based
Description: as §1, §2

T1 sequence (Q9BPW9 18-319): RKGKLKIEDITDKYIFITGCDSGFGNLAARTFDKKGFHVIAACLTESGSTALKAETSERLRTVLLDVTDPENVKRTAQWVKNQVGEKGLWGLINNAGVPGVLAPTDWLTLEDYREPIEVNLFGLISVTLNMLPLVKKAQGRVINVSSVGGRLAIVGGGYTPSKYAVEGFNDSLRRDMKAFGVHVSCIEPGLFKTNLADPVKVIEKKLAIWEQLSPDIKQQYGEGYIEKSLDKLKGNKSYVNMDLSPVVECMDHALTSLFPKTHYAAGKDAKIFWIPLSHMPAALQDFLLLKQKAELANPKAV

Compound: CC(C)=CCCC(C)=CC=O (racemic) [citral, Citral]
- inhibition at 100 µM (human DHRS9): 86%

Compound: C[C@]12CC[C@@H](O)C[C@@H]1CC[C@@H]1[C@@H]2CC[C@]2(C)[C@@H](O)CC[C@@H]12 [3α-diol, 3α-androstanediol]
- AC50 ([1]; cells transfected with DHRS9): 19 nM
- AC50 ([1]; non-transfected cells): 189 nM

Compound: CC1(C)[C@@H](OC(=O)CCC(=O)O)CC[C@]2(C)[C@H]3C(=O)C=C4[C@@H]5C[C@@](C)(C(=O)O)CC[C@]5(C)CC[C@@]4(C)[C@]3(C)CC[C@@H]12 [carbenoxolone, Carbenoxolone]
- inhibition at 100 µM (human DHRS9; concentration of 100 μM, PALM cells transfected with DHRS9): 35%

— patent US20100168231A1, “TARGET ENZYME FOR THE TREATMENT OF ACNE” (GALDERMA RESEARCH & DEVELOPMENT, priority 2007, published 2010)
